The text below walks through data of ChEMBL document CHEMBL3507680, “University of Dundee, Gates Library screen for HepG2 cell viability”.

This series in a line: Human HepG2 cell viability assay in 384 well format. The class given is toxicity, cell-based. On the set-up: dose 125 nL, time 70.5 hour; concentration not given beside the values. The settings on record: HepG2 cells, read-out: Inhibition.
As for `CNC(=O)N1CCC2(CC1)CNc1ccc(F)cc12`, the cytotoxicity at 70.5 h is -5.44%.
For the compound `O=C(c1cccc(-n2cccn2)c1)N1CCCOC(CN2CCCC2)C1` (stereo not given), the cytotoxicity at 70.5 h is 0.244%.
With `NCCn1cc(C(=O)N2CCCCCC2c2cccc(F)c2)nn1` (stereo not given), the cytotoxicity at 70.5 h was found to be 13.5%.
The figure for `COCCC1(CO)CCCN(Cc2ccc(F)c(C)c2)C1` (stereo not given) is -6.14%.
For `CCCn1cc(S(=O)(=O)N[C@H]2CN(CCO)C[C@@H]2C2CC2)cn1`, the cytotoxicity at 70.5 h was -7.84%.
For the compound `O=C(NCCn1ccnc1)c1csc2c1CCCC2`, the cytotoxicity at 70.5 h is -10.8%.
As for `COc1nc2ccccc2cc1C1CC(=O)Nc2n[nH]c(C3CCC3)c21` (stereo not given), the cytotoxicity at 70.5 h was determined as 4.02%.
With `NCCc1cn(Cc2ccccn2)c2ccccc12`, the cytotoxicity at 70.5 h is -5.82%.
With `O=C(CCN1C(=O)CCC1=O)Nc1ccc(OCC(F)(F)F)nc1`, the cytotoxicity at 70.5 h was -0.0202%.
Consider `Cn1cc(C(=O)CC2CCCN2C(=O)c2ccc(Cl)o2)cn1` (stereo not given), for which the cytotoxicity at 70.5 h worked out at 2.73%.
As for `O=C(NCCNC(=O)C1CCCCC1)NCCn1cccc1`, the cytotoxicity at 70.5 h was -4.89%.
On to `O=C(NCCc1nncn1C1CC1)c1cc2ccccn2c1`, for which the cytotoxicity at 70.5 h is -10.9%.
On to `COCC1CN(Cc2ccoc2)Cc2cn(CC3CCCC3)nc21` (stereo not given), for which the cytotoxicity at 70.5 h is -4.4%.
Turning to `CCC(=O)N1CCN(C(=O)CCn2cccn2)CC1`, the cytotoxicity at 70.5 h is -7.9%.
As for `Cc1cnc(C(=O)NC(CN2CCCC2=O)c2ccccc2)cn1` (stereo not given), the cytotoxicity at 70.5 h is -1.21%.
The figure for `CCNc1ncc(CN2C[C@H](C3CC3)[C@@H](N)C2)cn1` is -1.95%.
As to `Cc1cccc(CN2CCC3(CCCN(Cc4cnn(C)c4)C3)C2=O)n1` (stereo not given), the cytotoxicity at 70.5 h was -18.3%.
Regarding `CCn1cc(CN2CCN(C(=O)N3CCOCC3)CC2)cn1`, the cytotoxicity at 70.5 h turned out to be 16.2%.
Take `O=C(CN1CCCC1Cn1cccn1)NC1CCOCC1` (stereo not given): the cytotoxicity at 70.5 h is -5.99%.
As to `Cc1ccc(N2CC[C@H]3OCC[C@@]3(C(=O)N3CCCC3)C2)nn1`, the cytotoxicity at 70.5 h was -9.8%.
The figure for `CNc1cc(N2CCCC2CNCc2cccc(C#N)c2)ncn1` (stereo not given) is 1.28%; for `Cc1cc(C)nc(CNC(=O)C(c2cccnc2)N2CCOCC2)n1` (stereo not given) it is -6.63%.
`COC(=O)c1ccc(N2CCN(CCC(=O)NC(N)=O)C(C)C2)cc1` (stereo not given): the cytotoxicity at 70.5 h was -6.28%.
For `COC1CCCOC12CCN(C(=O)NCCc1cccs1)CC2` (stereo not given), the cytotoxicity at 70.5 h is -0.941%.
As to `CCc1c(C(=O)N2CCC(CC(N)=O)CC2)cnn1C(C)(C)C`, the cytotoxicity at 70.5 h is -3.41%.
On to `CCc1nc(CN2CCCN(C(=O)c3cn[nH]c3C)CC2)cs1`, for which the cytotoxicity at 70.5 h is -6.19%.
With `COCCC1(CO)CCCN(C(=O)c2cc(=O)[nH]c(=O)[nH]2)C1` (stereo not given), the cytotoxicity at 70.5 h is -8.57%.
The figure for `CC(=O)N1CCCC1c1nnn2cc(Nc3ccccc3)ccc12` (stereo not given) is -5.52%.
For the compound `Oc1nc(C2CCN(Cc3ccccn3)CC2)cc2ccccc12`, the cytotoxicity at 70.5 h was found to be 32.3%.
Under `COCC1CN(Cc2ccc(OC)cc2)Cc2nn(C)cc21` (stereo not given) stands 8.65%.
Turning to `CC(C)CC(C#N)NC(=O)CCNC(=O)C(C)(C)C` (stereo not given), the cytotoxicity at 70.5 h was determined as 2.87%.
For the compound `Cc1ccc(N2CCCC3(CCN(C(=O)CC(F)(F)F)C3)C2)nn1` (stereo not given), the cytotoxicity at 70.5 h was -10.2%.
Consider `COc1ccccc1CC(C)(C)NC(=O)CC(F)(F)F`, for which the cytotoxicity at 70.5 h was -11.8%.
As for `CN1CCCC(N2CCN(c3nc4ccccn4c3C#N)CC2)C1` (stereo not given), the cytotoxicity at 70.5 h came out at 11.1%.
Turning to `Cc1nn(C)cc1S(=O)(=O)NCC(c1ccccc1)N1CCCCCC1` (stereo not given), the cytotoxicity at 70.5 h stood at 17.9%.
Turning to `CCc1ncc2c(n1)CN(Cc1nc(-c3cccs3)no1)CC2`, the cytotoxicity at 70.5 h was -13%.
Turning to `O=C(NC1CCCC1)N1CC[C@H]2[C@H]1CCN2c1nncs1`, the cytotoxicity at 70.5 h came out at 36.5%.
For `CCC(=O)N1CSCC1C(=O)Nc1ccccc1-c1cccs1` (stereo not given), the cytotoxicity at 70.5 h was -9.09%.
As to `Cc1cccc(CN2CC[C@H]3O[C@H](C(=O)Nc4cnccn4)CC[C@H]32)n1`, the cytotoxicity at 70.5 h came out at 1.13%.
On to `CN(CCCc1n[nH]c(N)c1C#N)C(=O)Nc1cc(Cl)cc(Cl)c1`, for which the cytotoxicity at 70.5 h is -11.9%.
Take `c1cncc(NCCNC2CSCCSC2)c1`: the cytotoxicity at 70.5 h stood at 5.88%.
Turning to `Cn1nnnc1SCC(=O)N1CCN(C(=O)C2CC2c2cccs2)CC1` (stereo not given), the cytotoxicity at 70.5 h came out at 1.49%.
For the compound `CN(C)CC(=O)N1Cc2ncn(C)c2C(COCC2CCOCC2)C1` (stereo not given), the cytotoxicity at 70.5 h was -6.48%.
As to `CC(=O)N1CCC(NC(=O)NCCCc2cn[nH]c2C)CC1`, the cytotoxicity at 70.5 h came out at 0.436%.
Under `O=C(CS(=O)(=O)CC1CCCCC1)NC1CCCCNC1=O` (stereo not given) stands -14.4%; under `O=C(c1cc[nH]n1)N1CCC(Nc2cccnn2)CC1`, 14.8%; under `O=c1nc(SCc2cccnc2)c2c(n1CCO)CCC2`, -7.99%.
Take `CCOc1ccc(C2CCCN2Cc2nnnn2C2CC2)cc1` (stereo not given): the cytotoxicity at 70.5 h came to 0.0309%.
Consider `COCCNC(=O)CSc1nnc(OC(C)C)s1`, for which the cytotoxicity at 70.5 h is -10.2%.
Turning to `O=C(CN1CCC(c2ccccc2)CC1)NCc1cc2n(n1)CCNC2`, the cytotoxicity at 70.5 h was -10.6%.
Consider `O=C(c1cncs1)N1CCOCC(Cc2ccncn2)C1` (stereo not given), for which the cytotoxicity at 70.5 h was -7.66%.
Consider `Cc1csc(C(C#N)C(=O)NCc2cccnc2)n1` (stereo not given), for which the cytotoxicity at 70.5 h was -5.59%.
The figure for `COCC(=O)N1CCC(c2nc3ccc(-c4ccccc4)cn3n2)CC1` is -7.3%.
`Cc1cc(C(=O)N2Cc3ccccc3OC3(CCOCC3)C2)nc(N)n1`: the cytotoxicity at 70.5 h is -4.81%.
As for `O=C(NCC(=O)N1CCCC1Cc1cccc(F)c1)C1CCCC1` (stereo not given), the cytotoxicity at 70.5 h is -1.38%.
As to `CCC(=O)Nc1nnc2n(Cc3cccc(OC)c3)[nH]c(C)c1-2`, the cytotoxicity at 70.5 h was -0.289%.
The figure for `Cc1noc(C)c1CC(=O)N1CCc2sccc2C1` is -4.18%; for `Cc1ccnc(NCc2cn3c(C)csc3n2)n1` it is -11.5%.
As for `CN(c1cccnn1)C1CCN(C(=O)c2n[nH]c3c2CCC3)CC1`, the cytotoxicity at 70.5 h was -4.09%.
Under `O=C(NCc1cccnc1)C1CC(=O)N(CC2CC2)C1` (stereo not given) stands -6.68%; under `COc1cccc(CCC(=O)N2CCCC(n3cc(C)cn3)C2)c1` (stereo not given), -15.8%.
For `CC(=O)N1CCC(Cc2cccc(-c3ccnn3C)n2)CC1`, the cytotoxicity at 70.5 h was -8.71%.
For `Cc1cnn(CCNCC(O)COc2cccc(C(F)(F)F)c2)c1` (stereo not given), the cytotoxicity at 70.5 h came to 0.0235%.
With `Cc1noc(C(C)N2CCN(CCC(=O)N3CCCCC3)CC2)n1` (stereo not given), the cytotoxicity at 70.5 h was -8.82%.
Consider `COc1ccnc(N2CCN(C(=O)c3csc(C4CC4)n3)CC2)n1`, for which the cytotoxicity at 70.5 h was -6.71%.
Regarding `COc1ccccc1C(=O)Nc1c(C)cnn1CC1CC1`, the cytotoxicity at 70.5 h is -21.8%.
For the compound `CNC(=O)C1Cn2ccnc2C2(CCN(Cc3csc(C)n3)CC2)O1` (stereo not given), the cytotoxicity at 70.5 h was -2.63%.
As to `CNC(=O)[C@@H]1[C@@H](c2ccccc2)CN2CCN(Cc3cc(C)no3)C[C@H]12`, the cytotoxicity at 70.5 h was -4.59%.
Take `COC(=O)C1CCN(C(=O)NCC(C)Cc2cccs2)CC1` (stereo not given): the cytotoxicity at 70.5 h was -14.5%.
On to `CC(O)CN1CCN(C(=O)c2cccn2Cc2cccnc2)CC1` (stereo not given), for which the cytotoxicity at 70.5 h is -11.4%.
On to `CCc1[nH]c2c(CNc3cnccn3)cc(F)cc2c1C`, for which the cytotoxicity at 70.5 h is -2.66%.
For `Cc1nn(C)c(C)c1C(C)NCc1ccsc1` (stereo not given), the cytotoxicity at 70.5 h is 3.61%.
The figure for `CNC(=O)c1cccc(C2CNCCN2C(=O)C2CCNCC2)c1` (stereo not given) is -5.44%.
With `COCCNc1ncnc2c1CCN(C(=O)CC1CCC(=O)N1)CC2` (stereo not given), the cytotoxicity at 70.5 h is -12.7%.
On to `O=C(NS(=O)(=O)Cc1ccc(F)cc1)C1CCc2ccccc21` (stereo not given), for which the cytotoxicity at 70.5 h is 3.78%.
As for `COCCN(CC1CCCN(C2Cc3ccccc3C2)C1)C(=O)COC` (stereo not given), the cytotoxicity at 70.5 h was -7.6%.
The figure for `COc1cccc(CC(=O)N2CC[C@@H]3[C@H](CC2)N(C)CCS3(=O)=O)c1` is -2.21%; for `Cc1cncc(NCc2ccccc2N2CCOCC2)c1` it is 3.08%; for `CNC(=O)c1ccc(C(=O)N2CCCCC2Cn2cc(C)cn2)cn1` (stereo not given) it is -5.34%.
With `COc1ccc(C)cc1NS(=O)(=O)c1ccc(CCNC(C)=O)s1`, the cytotoxicity at 70.5 h is -4.06%.
On to `Cc1ccnc2c1NC(=O)CN2C(=O)CCc1ccccc1`, for which the cytotoxicity at 70.5 h is -13.4%.
Under `CN(C)Cc1cccc(-c2cccnc2C(=O)NCc2ccco2)c1` stands -4.14%; under `CCc1cnc(C)nc1NCCN1CCC(O)CC1`, 9.55%; under `Cc1ccc(N2CC[C@@H]3[C@@H]2CCN3C(=O)Cc2ccsc2)nn1`, -4.23%.
As for `Cn1cc(Cl)cc1C(=O)N1CCC2(CCCN(CC3CC3)C2=O)C1` (stereo not given), the cytotoxicity at 70.5 h was determined as 24.1%.
Take `O=C([C@H]1COC[C@H]2CN(CC3CCC3)C[C@H]21)N1CCOCC1`: the cytotoxicity at 70.5 h was -6.01%.
Consider `COc1ccc2c(c1)C1(CCNCC1)CC2NC1CC1` (stereo not given), for which the cytotoxicity at 70.5 h was 27.2%.
The figure for `CC(NC(=O)Nc1cnn(CC(N)=O)c1)c1ccc(Cl)s1` (stereo not given) is -1.05%; for `Cc1oncc1C(=O)N1CCC2(CC1)CN(S(C)(=O)=O)c1ccccc12` it is -3.56%; for `CC(C)c1nnc2n1CCN(Cc1csc(-c3cnn(C)c3)n1)C2` it is -2.14%.
Turning to `CN1CCN(C(=O)c2cccc(S(=O)(=O)NCC3(C)COC3)c2)CC1`, the cytotoxicity at 70.5 h is -9.16%.
The figure for `CNC(=O)NC(=O)CN1CCN(CC2CC2)c2ccccc21` is 1.66%; for `Cc1nn(C)c(N(C)C)c1CNCc1ccnc(N2CCOCC2)c1` it is -5.46%.
As for `Cn1cc(C(=O)N2CCN(c3ncccn3)CC2)ccc1=O`, the cytotoxicity at 70.5 h is -2.44%.
For `COCCN1CCN(C(=O)C2CC=CC2)Cc2cccnc21`, the cytotoxicity at 70.5 h is -12%.
On to `Cn1ccnc1CN1CCCN(C(=O)COC2CCCCC2)CC1`, for which the cytotoxicity at 70.5 h worked out at 22.3%.
For the compound `COc1c(C2CCCN2C(=O)CCNc2ncccn2)c(C)nn1C` (stereo not given), the cytotoxicity at 70.5 h was -10.7%.
For `COCC1CN(Cc2sccc2C)Cc2nnn(CC3CC3)c21` (stereo not given), the cytotoxicity at 70.5 h was -4.06%.
Take `Cc1cnc(N2CCn3c(CN4CCOCC4)nnc3C2)nc1`: the cytotoxicity at 70.5 h was found to be 21.1%.
As to `CNS(=O)(=O)c1cccc(C(C)NCc2ccc(C)o2)c1` (stereo not given), the cytotoxicity at 70.5 h was -2.97%.
